From patent publication US12568967B2, “Compositions comprising pyridine carboxylate herbicides with synthetic auxin herbicides or auxin transport inhibitors” (priority 2018, dated 2026)
Values joined by “and” are separate entries in the source; they are usually repeats but may differ in a detail not shown here. Equal entries are not always repeated.

Tests used:
Type in all cases: in vivo
[1] = system: Matricaria discoidea (pineapple weed, MATMT); assay: Greenhouse postemergence trial MATMT; details: MATMT; for % visual injury Obs: alone; for % visual injury, Obs: applied alone
Method: (§1) Seeds of the desired test plant species were planted in a 90:10% v/v (volume/volume) mixture of PRO-MIX® BX (Premier Tech Horticulture, Quakertown, PA, USA) and PROFILE® GREENS GRADE™ (Profile Products LLC, Buffalo Grove, IL, USA) planting mixture, which typically has a pH of 5.2 to 6.2 and an organic matter content of at least 50 percent, in plastic pots with a surface area of 103.2 square centimeters (cm^2). […] The plants were grown for 7-36 days (d) in a greenhouse with an approximate 14-hour (h) photo-period which was maintained at about 23° C. during the day and 22° C. during the night. Nutrients and water were added on a regular basis and supplemental lighting was provided with overhead metal halide 1000-Watt lamps as necessary. The plants were employed for testing when they reached the second or third true leaf stage.
(§2) Emulsifiable concentrates of each of each pyridine carboxylate herbicide (Compound A or Compound B) were prepared at 100 grams acid equivalent per liter (g ae/L). The emulsifiable concentrates also included a safener, cloquintocet-mexyl, at 120 grams active ingredient per liter (g ai/L), unless otherwise noted below. An aliquot of each emulsifiable concentrate was placed in a 25 mL glass vial and diluted with an aqueous mixture of 1.25% (v/v) ACTIROB® B esterified rapeseed oil (Bayer Crop Science, Research Triangle Park, NC, USA) or MSO® Concentrate with LECI-TECH® methylated soybean oil (Loveland Products, Loveland, CO, USA) to obtain concentrated stock solutions at the highest application rate for each herbicide, based upon a 12 milliliter (mL) application volume at a rate of 187 liters per hectare (L/ha). The concentrated stock solutions were further diluted with an aqueous mixture of 1.25% v/v ACTIROB® B or MSO® Concentrate with LECI-TECH® to obtain stock solutions at reduced application rates for each herbicide. Spray solutions of the herbicide combinations (Compound A or Compound B plus synthetic auxin herbicide or auxin transport inhibitor) were prepared by adding weighed amounts or aliquots of the synthetic auxin herbicide or auxin transport inhibitor to the stock solutions of Compound A or Compound B to form 12-mL spray solutions in two-way combinations.
(§3) The spray solutions were applied to the plant material with an overhead Mandel track sprayer equipped with 8002E nozzles calibrated to deliver 187 L/ha over an application area of 0.503 square meters (m^2) at a spray height of 18 inches (43 centimeters (cm)) above the average plant canopy. Control plants were sprayed in the same manner with the solvent blank. All pyridine carboxylate herbicide (component a) application rates are given as “g ae/ha” and all synthetic auxin herbicide or auxin transport inhibitor (component b) application rates are given as “g ai/ha.”
(§4) The treated plants and control plants were placed in a greenhouse as described above and watered by sub-irrigation to prevent wash-off of the test compounds. After 20-22 d, the condition of the test plants as compared with that of the control plants was determined visually and scored on a scale of 0 to 100 percent where 0 corresponds to no injury and 100 corresponds to complete kill.

[2] = system: Capsella bursa-pastoris (shepherd's purse, CAPBP); assay: Greenhouse postemergence trial CAPBP; details: CAPBP; for % visual injury, Obs: applied alone
Method: as §1, §2, §3, §4

[3] = system: Cyanus segetum (cornflower, CENCY); assay: Greenhouse postemergence trial CENCY; details: CENCY; for % visual injury Obs: alone; for % visual injury, Obs: applied alone
Method: as §1, §2, §3, §4

[4] = system: Sinapis arvensis (wild mustard, SINAR); assay: Greenhouse postemergence trial SINAR
Method: (§5) The plants were grown for 7-36 days (d) in a greenhouse with an approximate 14-hour (h) photo-period which was maintained at about 23° C. during the day and 22° C. during the night. Nutrients and water were added on a regular basis and supplemental lighting was provided with overhead metal halide 1000-Watt lamps as necessary. The plants were employed for testing when they reached the second or third true leaf stage.
(§6) The emulsifiable concentrates also included a safener, cloquintocet-mexyl, at 120 grams active ingredient per liter (g ai/L), unless otherwise noted below.
(§7) Control plants were sprayed in the same manner with the solvent blank. All pyridine carboxylate herbicide (component a) application rates are given as “g ae/ha” and all synthetic auxin herbicide or auxin transport inhibitor (component b) application rates are given as “g ai/ha.”
as §4

[5] = system: Chenopodium album L. (common lambsquarters, CHEAL); assay: Greenhouse postemergence trial CHEAL;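 further: greenhouse plants sprayed at second to third true leaf stage, injury rated by eye after 20-22 d versus solvent-blank sprayed controls, 0 = no injury, 100 = complete kill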
[6] = system: Papaver rhoeas (corn poppy, PAPRH); assay: Greenhouse postemergence trial PAPRH; details: PAPRH; for % visual injury Obs: alone; for % visual injury, Obs: applied alone
Method: as §1, §2, §3, §4

[7] = system: Lolium multiflorum (Italian ryegrass, LOLMU); assay: Greenhouse postemergence trial LOLMU; details: Compound A 10 g/ha
Method: as §1, §2, §3, §4

[8] = system: Avena fatua (wild oat, AVEFA); assay: Greenhouse postemergence trial AVEFA; details: Compound A 10 g/ha
Method: as §1
(§8) Emulsifiable concentrates of each of each pyridine carboxylate herbicide (Compound A or Compound B) were prepared at 100 grams acid equivalent per liter (g ae/L). The emulsifiable concentrates also included a safener, cloquintocet-mexyl, at 120 grams active ingredient per liter (g ai/L), unless otherwise noted below. An aliquot of each emulsifiable concentrate was placed in a 25 mL glass vial and diluted with an aqueous mixture of 1.25% (v/v) ACTIROB® B esterified rapeseed oil (Bayer Crop Science, Research Triangle Park, NC, USA) or MSO® Concentrate with LECI-TECH® methylated soybean oil (Loveland Products, Loveland, CO, USA) to obtain concentrated stock solutions at the highest application rate for each herbicide, based upon a 12 milliliter (mL) application volume at a rate of 187 liters per hectare (L/ha). The concentrated stock solutions were further diluted with an aqueous mixture of 1.25% v/v ACTIROB® B or MSO® Concentrate with LECI-TECH® to obtain stock solutions at reduced application rates for each herbicide. Spray solutions of the herbicide combinations (Compound A or Compound B plus synthetic auxin herbicide or auxin transport inhibitor) were prepared by adding weighed amounts or aliquots of the synthetic auxin herbicide or auxin transport inhibitor to the stock solutions of Compound A or Compound B to form 12-mL spray solutions in two-way combinations. […]
as §4

[9] = system: Alopecurus myosuroides (blackgrass, ALOMY); assay: Greenhouse postemergence trial ALOMY; details: Compound A 10 g/ha
Method: as §1, §8, §4

[10] = system: Salsola kali (Russian thistle, SASKR); assay: Greenhouse postemergence trial SASKR;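 further: greenhouse plants sprayed at second or third true leaf stage, injury rated by eye after 20-22 d against solvent-blank controls, 0 meaning no injury, 100 complete kill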
Method: as §5, §6, §7, §4

[11] = system: Abutilon theophrasti (velvetleaf, ABUTH); assay: Greenhouse postemergence trial ABUTH; details: Compound A 10 g/ha
[12] = system: Veronica hederifolia (ivyleaf speedwell, VERHE); assay: Greenhouse postemergence trial VERHE; details: VERHE; for % visual injury, Obs: applied alone
Method: as §1, §2, §3, §4

[13] = system: Leptochloa chinensis (Chinese sprangletop, LEFCH); assay: Greenhouse postemergence trial LEFCH; details: Compound A 10 g/ha
Method: as §1, §8, §4

N#CCOC(=O)c1nc(-c2ccc3cc[nH]c3c2F)c(F)c(N)c1Cl [Compound A, cyanomethyl 4-amino-3-chloro-5-fluoro-6-(7-fluoro-1H-indol-6-yl)pyridine-2-carboxylate]
visual injury, Obs ([1]; Compound A 10 g/ha alone): 5%
visual injury, Obs ([1]; Compound A 15 g/ha alone): 15%
% visual injury Obs ([1]; 10 g/ha): 5%
% visual injury Obs ([1]; 15 g/ha): 15%
% visual injury, Obs ([1]; 10 g/ha): 5%
% visual injury, Obs ([1]; 15 g/ha): 15%
pest or weed control at […] ([1]; Matricaria discoidea, post-emergence, Compound A 7.5 g/ha, read-out: % visual injury Obs): 5%
pest or weed control at 10 g/ha ([1]; Matricaria discoidea, post-emergence, Compound A 10 g/ha, read-out: % visual injury Obs): 5%
pest or weed control at 15 g/ha ([1]; Matricaria discoidea, post-emergence, Compound A 15 g/ha, read-out: % visual injury Obs): 15%
visual injury, Obs ([2]; Compound A 10 g/ha alone): 50%
visual injury, Obs ([2]; Compound A 15 g/ha alone): 85%
% visual injury (Obs) ([2]; alone 10 g/ha): 78%
% visual injury Obs ([2]; alone 10 g/ha): 50%
% visual injury Obs ([2]; alone, 15 g/ha): 85%
% visual injury, Obs ([2]; 10 g/ha): 50%
% visual injury, Obs ([2]; 15 g/ha): 85%
pest or weed control at […] ([2]; Capsella bursa-pastoris, post-emergence, Compound A 7.5 g/ha, read-out: % visual injury Obs): 50%
pest or weed control at 10 g/ha ([2]; Capsella bursa-pastoris, post-emergence, Compound A 10 g/ha, read-out: % visual injury Obs): 50%
pest or weed control at 15 g/ha ([2]; Capsella bursa-pastoris, post-emergence, Compound A 15 g/ha, read-out: % visual injury Obs): 85%
visual injury, Obs ([3]; Compound A 10 g/ha alone): 100%
visual injury, Obs ([3]; Compound A 15 g/ha alone): 100%
% visual injury Obs ([3]; 10 g/ha): 100%
% visual injury Obs ([3]; 15 g/ha): 100%
% visual injury, Obs ([3]; 10 g/ha): 100%
% visual injury, Obs ([3]; 15 g/ha): 100%
pest or weed control at […] ([3]; Centaurea cyanus, post-emergence, Compound A 7.5 g/ha, read-out: % visual injury Obs): 100%
pest or weed control at 10 g/ha ([3]; Centaurea cyanus, post-emergence, Compound A 10 g/ha, read-out: % visual injury Obs): 100%
pest or weed control at 15 g/ha ([3]; Centaurea cyanus, post-emergence, Compound A 15 g/ha, read-out: % visual injury Obs): 100%
SINAR Obs (% visual injury) ([4]; Compound A 10 g/ha): 100% and 90%
SINAR % visual injury Obs ([4]; Compound A 10 g/ha (Table 42)): 100%
SINAR % visual injury Obs ([4]; Compound A 10 g/ha (Table 43)): 100%
SINAR % visual injury Obs ([4]; Compound A 10 g/ha (Table 44)): 100%
pest or weed control at […] ([4]; Mutarda arvensis, post-emergence, SINAR, Compound A 7.5 g/ha, read-out: % visual injury Obs): 90%
pest or weed control at 10 g/ha ([4]; Mutarda arvensis, post-emergence, SINAR, Compound A 10 g/ha, read-out: % visual injury Obs): 90%
pest or weed control at 15 g/ha ([4]; Mutarda arvensis, post-emergence, SINAR, Compound A 15 g/ha, read-out: % visual injury Obs): 100%
% visual injury Obs ([4]; SINAR, Compound A 10 g/ha): 90%
% visual injury, Obs ([4]; SINAR, Compound A 10 g/ha): 100% and 88%
visual injury, Obs ([4]; SINAR, Compound A 10 g/ha alone): 90%
visual injury, Obs ([4]; SINAR, Compound A 15 g/ha alone): 100%
% visual injury (Obs) ([4]; SINAR, alone, 10 g/ha): 90% and 88%
% visual injury Obs ([4]; SINAR, alone, 10 g/ha): 90%
% visual injury Obs ([4]; SINAR, alone, 15 g/ha): 100%
% visual injury, Obs ([4]; SINAR, applied alone, 10 g/ha): 90% and 88%
% visual injury, Obs ([4]; SINAR, applied alone, 15 g/ha): 100%
% visual injury, Obs ([5]; CHEAL, Compound A 10 g/ha): 88% and 78%
% visual injury (Obs) ([5]; CHEAL, alone 10 g/ha): 90% and 78%
% visual injury, Obs ([5]; CHEAL, applied alone, 10 g/ha): 80%
CHEAL Obs (% visual injury) ([5]; Compound A 10 g/ha): 88% and 90%
CHEAL % visual injury Obs ([5]; Compound A 10 g/ha (Table 42)): 88%
CHEAL % visual injury Obs ([5]; Compound A 10 g/ha (Table 43)): 88%
CHEAL % visual injury Obs ([5]; Compound A 10 g/ha (Table 44)): 88%
visual injury, Obs ([6]; Compound A 10 g/ha alone): 100%
visual injury, Obs ([6]; Compound A 15 g/ha alone): 100%
% visual injury Obs ([6]; 10 g/ha): 100%
% visual injury Obs ([6]; 15 g/ha): 100%
% visual injury, Obs ([6]; 10 g/ha): 100%
% visual injury, Obs ([6]; 15 g/ha): 100%
pest or weed control at […] ([6]; Papaver rhoeas, post-emergence, Compound A 7.5 g/ha, read-out: % visual injury Obs): 100%
pest or weed control at 10 g/ha ([6]; Papaver rhoeas, post-emergence, Compound A 10 g/ha, read-out: % visual injury Obs): 100%
pest or weed control at 15 g/ha ([6]; Papaver rhoeas, post-emergence, Compound A 15 g/ha, read-out: % visual injury Obs): 100%
LOLMU Obs (% visual injury) [7]: 0%
LOLMU Obs (% visual injury) ([7]; without safener): 0%
% visual injury, Obs ([7]; LOLMU): 0%
% visual injury, Obs ([8]; AVEFA): 0%
AVEFA Obs (% visual injury) ([8]; without safener): 0%
% visual injury, Obs ([9]; ALOMY): 0%
ALOMY Obs (% visual injury) ([9]; without safener): 0%
SASKR Obs (% visual injury) ([10]; Compound A 10 g/ha): 65% and 63%
SASKR % visual injury Obs ([10]; Compound A 10 g/ha (Table 42)): 65%
SASKR % visual injury Obs ([10]; Compound A 10 g/ha (Table 43)): 65%
SASKR % visual injury Obs ([10]; Compound A 10 g/ha (Table 44)): 65%
% visual injury, Obs ([10]; SASKR, Compound A 10 g/ha): 65%
visual injury, Obs ([10]; SASKR, Compound A 10 g/ha alone): 50%
visual injury, Obs ([10]; SASKR, Compound A 15 g/ha alone): 50%
% visual injury (Obs) ([10]; SASKR, alone, 10 g/ha): 63%
% visual injury Obs ([10]; SASKR, alone, 10 g/ha): 50%
% visual injury Obs ([10]; SASKR, alone, 15 g/ha): 50%
% visual injury, Obs ([10]; SASKR, applied alone, 10 g/ha): 50% and 63%
% visual injury, Obs ([10]; SASKR, applied alone, 15 g/ha): 50%
pest or weed control at […] ([10]; Salsola kali, post-emergence, SASKR, Compound A 7.5 g/ha, read-out: % visual injury Obs): 30%
pest or weed control at 10 g/ha ([10]; Salsola kali, post-emergence, SASKR, Compound A 10 g/ha, read-out: % visual injury Obs): 50%
pest or weed control at 15 g/ha ([10]; Salsola kali, post-emergence, SASKR, Compound A 15 g/ha, read-out: % visual injury Obs): 50%
% visual injury, Obs ([11]; ABUTH): 75%
ABUTH Obs (% visual injury) [11]: 78%
ABUTH Obs (% visual injury) ([11]; without safener): 75%
% visual injury Obs ([12]; Compound A 10 g/ha): 75%
visual injury, Obs ([12]; Compound A 10 g/ha alone): 75%
visual injury, Obs ([12]; Compound A 15 g/ha alone): 80%
% visual injury Obs ([12]; alone, 10 g/ha): 75%
% visual injury Obs ([12]; alone, 15 g/ha): 80%
% visual injury, Obs ([12]; 10 g/ha): 75%
% visual injury, Obs ([12]; 15 g/ha): 80%
pest or weed control at […] ([12]; Veronica hederifolia, post-emergence, Compound A 7.5 g/ha, read-out: % visual injury Obs): 65%
pest or weed control at 10 g/ha ([12]; Veronica hederifolia, post-emergence, Compound A 10 g/ha, read-out: % visual injury Obs): 75%
pest or weed control at 15 g/ha ([12]; Veronica hederifolia, post-emergence, Compound A 15 g/ha, read-out: % visual injury Obs): 80%
LEFCH Obs (% visual injury) ([13]; without safener): 0%
% visual injury, Obs ([13]; LEFCH): 0%
